Earlier results on two compounds are cited in US9925167B2, “Agents for the control of parasites on animals” (Hansen-AB GmbH, priority 2011, dated 2018).

In data set [1] the test system is fenvalerate-induced skin sensitizations. The settings on record: guinea pigs, Malley et al. 1985.
Data set [2] relates to hepatotoxic damage. Particulars: orally administered; Aldana et al. 2001.
The test system of data set [3] is paresthesias. Particulars: humans.

On to vitamin E, for which the “Effect of dermal pre-treatment on fenvalerate-induced skin sensitizations” value in data set [1] is listed as “reduction”.

With `CC(=O)Oc1c(C)c(C)c2c(c1C)CC[C@@](C)(CCC[C@H](C)CCC[C@H](C)CCCC(C)C)O2` [vitamin E acetate, Alpha-tocopheryl acetate], the “Effect on hepatotoxic damage after i.p. application of cypermethrin” value in data set [2] is “positive effects”. The “Effect on paresthesias triggered by cyano-pyrethroid active substances such as fenvalerate” value in data set [3] (Flannigan et al. 1985) was “positive effects”. For the same compound, the “Effect of topical application in paresthesias after pyrethroid-induced damage” value in data set [3] (topical, Bradberry et al. 2005) is “positive effect”.
